Data published in ChEMBL document CHEMBL1671712, “Emergence of resistance among USA300 methicillin-resistant Staphylococcus aureus isolates causing invasive disease in the United States” (2010).

How the values were obtained:
Staphylococcus aureus [1] = assay: Antimicrobial activity against Staphylococcus aureus USA300 isolate harboring pSK41 plasmid expressing ermC gene assessed resistant isolates; format: functional
Staphylococcus aureus [2] = assay: Antimicrobial activity against Staphylococcus aureus USA300 isolate harboring pSK41 plasmid assessed resistant isolates; format: functional
Staphylococcus aureus [3] = assay: Antimicrobial activity against Staphylococcus aureus USA300 isolate harboring pSK41 plasmid expressing tetK gene assessed resistant isolates; format: functional
Staphylococcus aureus [4] = assay: Antimicrobial activity against Staphylococcus aureus USA300 isolate harboring pSK41 plasmid expressing aac'-aph'''' gene assessed resistant isolates; format: functional, organism-based

Molecule	Activity (Staphylococcus aureus [2])	other results
CCC[C@@H]1C[C@@H](C(=O)N[C@@H]([C@H]2O[C@H](SC)[C@H](O)[C@@H](O)[C@H]2O)[C@H](C)Cl)N(C)C1 [CLINDAMYCIN]	–	Activity (Staphylococcus aureus [1]): 6.2%
CC[C@H]1OC(=O)[C@H](C)[C@@H](O[C@H]2C[C@@](C)(OC)[C@@H](O)[C@H](C)O2)[C@H](C)[C@@H](O[C@@H]2O[C@H](C)C[C@H](N(C)C)[C@H]2O)[C@](C)(O)C[C@@H](C)C(=O)[C@H](C)[C@@H](O)[C@]1(C)O [ERYTHROMYCIN]	85%	–
C[C@H]1COc2c(N3CCN(C)CC3)c(F)cc3c(=O)c(C(=O)O)cn1c23.C[C@H]1COc2c(N3CCN(C)CC3)c(F)cc3c(=O)c(C(=O)O)cn1c23.O [LEVOFLOXACIN]	45%	–
Cc1onc(-c2ccccc2)c1C(=O)N[C@@H]1C(=O)N2[C@@H]1SC(C)(C)[C@@H]2C(=O)O [OXACILLIN]	100%	–
CC1(C)S[C@@H]2[C@H](NC(=O)Cc3ccccc3)C(=O)N2[C@H]1C(=O)O [PENICILLIN G]	100%	–
CN(C)[C@@H]1C(O)=C(C(N)=O)C(=O)[C@@]2(O)C(O)=C3C(=O)c4c(O)cccc4[C@@](C)(O)[C@H]3C[C@@H]12 [TETRACYCLINE]	–	Activity (Staphylococcus aureus [3]): 8.4%
GENTAMICIN	–	Activity (Staphylococcus aureus [4]): 1%
